Measured values reported in patent US20220054398A1, “USE OF RUBUS FRUTICOSUS EXTRACT FOR MANUFACTURING A SKINCARE COMPOSITION” (TCI CO., LTD., priority 2020, published 2022).

Test system: Mouse melanoma cell B16F10
Test: Melanin production after blue light exposure, OD450
Assay type: cell-based
Conditions: B16F10 cells, 0.25 mg/mL 24 hours, blue light 3 hours, then 48 hours
Experimental: The changes in melanin content of melanoma cell line B16F10 after being treated with Rubus fruticosus extract are determined by an ELISA reader (enzyme-linked immunosorbent assay reader). Materials and Instruments: • 1. Cell line: Mouse melanoma cell B16F10, purchased from American Type Culture Collection (ATCC®, No. 6475), hereinafter referred to as B16F10 cells. • 2. Medium: Dulbecco's modified […] (DMEM, purchased from Gibco, Cat. 12100-038) is supplemented with additional ingredients to contain 1 vol % antibiotic solution (Antibiotic Antimycotic Solution, purchased from Gibco, 15240-062) and 10 vol % FBS (fetal bovine Serum, purchased from Gibco, 10437-028). Gibco, 15240-062). • 3. Phosphate Buffer Solution (PBS solution): purchased from Gibco, Product No. […]. • 4. Prepare a solution of 1N NaOH (Sigma, Product No. 221465) in secondary distilled water. • 5. ELISA reader (purchased from BioTek, product number FLx 800). • 6. […] Transfer 100 μL of the sample to be tested into a 96-well plate and measure the absorbance value of the cell solution at 450 nm using an ELISA reader. The relative melanin expressions of the experimental and control groups are calculated according to the following formula: Relative melanin expression (%)=(OD 450 value of each group/OD450 value of the control group)×100%.

Q: For O=c1cc(CO)occ1O [kojic acid, Kojic acid], which “melanin production compared with the control group” value is on record?
A: 67.42%
